Test results from ChEMBL document CHEMBL5331140, “Discovery of IACS-52825, a Potent and Selective DLK Inhibitor for Treatment of Chemotherapy-Induced Peripheral Neuropathy” (J Med Chem, 2023).
pIC50, pKd: −log10 of the molar value. Active and inactive are the calls of the source.

Legend:
[1] = Binding affinity to full length human DLK (1 to 859 residues)/NFkappaB DNA binding domain (unknown origin) fusion protein transfected in HEK293 cells assessed as dissociation constant incubated for 1 hr by Kinomescan assay; format: cell-based
[2] = Metabolic stability in mouse liver microsomes assessed as intrinsic clearance at 1 uM in presence of NADPH regenerating system measured for 45 mins by LC-MS/MS analysis; format: ADME, Microsome; conditions: read-out: CLH
[3] = Metabolic stability in rat liver microsomes assessed as intrinsic clearance at 1 uM in presence of NADPH regenerating system measured for 45 mins by LC-MS/MS analysis; format: ADME, Microsome; conditions: read-out: CLH
[4] = Metabolic stability in human liver microsomes assessed as intrinsic clearance at 1 uM in presence of NADPH regenerating system measured for 45 mins by LC-MS/MS analysis; format: ADME, Microsome; conditions: read-out: CLH
[5] = Half life in C57BL/6 mouse at 0.3 mg/kg, iv measured for 24 hrs by LC-MS/MS analysis; format: ADME, organism-based; conditions: in vivo
[6] = Ratio of unbound drug concentration in C57BL/6 mouse brain to plasma at 0.3 mg/kg, iv measured for 24 hrs by LC-MS/MS analysis; format: ADME, organism-based; conditions: brain and plasma, read-out: K(p,uu,brain)
[7] = Oral bioavailability in C57BL/6 mouse at 10 mg/kg administered via oral gavage and measured for 24 hrs by LC-MS/MS analysis; format: ADME, organism-based; conditions: in vivo; for bioavailability: C57BL/6, mouse
[8] = Half life in Sprague-Dawley rat at 3 mg/kg, po or 0.3 mg/kg, iv measured for 24 hrs by LC-MS/MS analysis; format: ADME, organism-based; conditions: in vivo
[9] = Oral bioavailability in Sprague-Dawley rat at 3 mg/kg administered via oral gavage and measured for 24 hrs by LC-MS/MS analysis; format: ADME, organism-based; conditions: in vivo
[10] = Half life in Beagle dog at 1 mg/kg, po or 0.3 mg/kg, iv measured for 24 hrs by LC-MS/MS analysis; format: ADME, organism-based, Canis lupus familiaris; conditions: in vivo
[11] = Oral bioavailability in Beagle dog at 1 mg/kg administered via oral gavage and measured for 24 hrs by LC-MS/MS analysis; format: ADME, organism-based, Canis lupus familiaris; conditions: in vivo
[12] = Half life in cynomolgus monkey at 1 mg/kg, po or 0.3 mg/kg, iv measured for 24 hrs by LC-MS/MS analysis; format: ADME, organism-based, Macaca fascicularis; conditions: in vivo
[13] = Oral bioavailability in cynomolgus monkey at 1 mg/kg administered via nasal gavage measured for 24 hrs by LC-MS/MS analysis; format: ADME, organism-based, Macaca fascicularis; conditions: in vivo
[14] = biological target: T1, Dual specificity mitogen-activated protein kinase kinase 5 (Homo sapiens) (UniProt Q13163); assay: Inhibition of MEK5 (unknown origin) at 1 uM relative to control
T1 sequence (whole entry): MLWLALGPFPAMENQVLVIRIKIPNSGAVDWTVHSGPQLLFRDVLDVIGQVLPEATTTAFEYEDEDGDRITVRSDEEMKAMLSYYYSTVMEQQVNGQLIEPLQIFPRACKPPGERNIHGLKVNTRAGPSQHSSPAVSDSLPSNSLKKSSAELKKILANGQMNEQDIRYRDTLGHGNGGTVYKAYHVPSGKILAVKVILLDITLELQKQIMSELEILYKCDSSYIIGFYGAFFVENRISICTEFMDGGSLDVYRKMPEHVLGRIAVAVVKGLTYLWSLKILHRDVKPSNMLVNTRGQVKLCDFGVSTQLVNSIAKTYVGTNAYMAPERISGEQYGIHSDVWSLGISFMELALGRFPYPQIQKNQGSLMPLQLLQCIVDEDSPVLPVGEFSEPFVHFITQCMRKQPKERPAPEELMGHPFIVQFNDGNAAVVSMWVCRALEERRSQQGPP

Mus musculus [15] = assay: (§1) Antiallodynic activity in cisplatin-induced mechanical allodynia C57BL/6 mouse model assessed as increase in paw withdrawal threshold at 30 mg/kg, po stimulated with cisplatin on day 1 to 5 and 10 to 15 followed by daily administration of compound from day 6 to 16 and measured for 30 days by von frey test; format: functional, organism-based; conditions: time 25.0 day
Mus musculus [16] = assay: as §1, with “day” for “day 6 to”, “for 35” for “for 30”; format: functional, organism-based; conditions: time 20.0 day
[17] = Toxicity in rat by GLP toxicity study; conditions: in vivo
[18] = biological target: Voltage-gated inwardly rectifying potassium channel KCNH2 (Homo sapiens, UniProt Q12809)
Chain of Voltage-gated inwardly rectifying potassium channel KCNH2 (Q12809 whole entry): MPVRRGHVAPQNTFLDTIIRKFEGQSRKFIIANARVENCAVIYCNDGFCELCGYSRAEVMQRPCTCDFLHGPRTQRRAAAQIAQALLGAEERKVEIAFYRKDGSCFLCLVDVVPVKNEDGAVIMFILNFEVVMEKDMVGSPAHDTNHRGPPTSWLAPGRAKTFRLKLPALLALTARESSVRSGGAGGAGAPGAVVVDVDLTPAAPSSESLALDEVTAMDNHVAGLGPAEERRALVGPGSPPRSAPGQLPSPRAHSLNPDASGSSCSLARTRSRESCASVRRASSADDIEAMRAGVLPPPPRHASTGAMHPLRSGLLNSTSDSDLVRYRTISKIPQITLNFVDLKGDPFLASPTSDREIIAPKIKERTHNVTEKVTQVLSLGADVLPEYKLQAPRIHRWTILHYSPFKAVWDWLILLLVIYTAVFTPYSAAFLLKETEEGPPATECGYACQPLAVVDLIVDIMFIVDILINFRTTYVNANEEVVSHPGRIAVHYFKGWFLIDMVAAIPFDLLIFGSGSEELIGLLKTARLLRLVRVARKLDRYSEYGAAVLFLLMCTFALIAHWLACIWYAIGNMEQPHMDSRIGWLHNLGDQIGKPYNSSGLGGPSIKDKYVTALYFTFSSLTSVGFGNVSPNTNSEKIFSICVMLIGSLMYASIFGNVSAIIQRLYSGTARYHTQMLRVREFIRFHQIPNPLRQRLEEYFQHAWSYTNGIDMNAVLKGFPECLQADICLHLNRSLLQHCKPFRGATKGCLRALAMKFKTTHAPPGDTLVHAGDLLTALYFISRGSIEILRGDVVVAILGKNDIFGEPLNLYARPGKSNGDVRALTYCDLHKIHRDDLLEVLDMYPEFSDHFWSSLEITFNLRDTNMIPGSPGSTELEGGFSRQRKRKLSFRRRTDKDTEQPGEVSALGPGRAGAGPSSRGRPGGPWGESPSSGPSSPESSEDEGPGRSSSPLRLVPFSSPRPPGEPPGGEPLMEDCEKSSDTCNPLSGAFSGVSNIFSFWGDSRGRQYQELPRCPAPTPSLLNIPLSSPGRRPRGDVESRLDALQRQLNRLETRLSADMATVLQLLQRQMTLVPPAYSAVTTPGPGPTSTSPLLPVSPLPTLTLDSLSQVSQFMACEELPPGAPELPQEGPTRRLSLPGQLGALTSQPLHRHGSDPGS
Description: Inhibition of hERG expressed in CHO cells at -80 mV holding potential by QPatch automated electrophysiology assay

[19] = biological target: T2, Mitogen-activated protein kinase kinase kinase 12 (Homo sapiens, UniProt Q12852); assay: Inhibition of doxycycline-inducible human DLK transfected in HEK293 cells assessed as reduction in c-Jun phosphorylation at Ser63 residue incubated for 5 hrs; format: cell-based
T2 sequence (Q12852 whole entry): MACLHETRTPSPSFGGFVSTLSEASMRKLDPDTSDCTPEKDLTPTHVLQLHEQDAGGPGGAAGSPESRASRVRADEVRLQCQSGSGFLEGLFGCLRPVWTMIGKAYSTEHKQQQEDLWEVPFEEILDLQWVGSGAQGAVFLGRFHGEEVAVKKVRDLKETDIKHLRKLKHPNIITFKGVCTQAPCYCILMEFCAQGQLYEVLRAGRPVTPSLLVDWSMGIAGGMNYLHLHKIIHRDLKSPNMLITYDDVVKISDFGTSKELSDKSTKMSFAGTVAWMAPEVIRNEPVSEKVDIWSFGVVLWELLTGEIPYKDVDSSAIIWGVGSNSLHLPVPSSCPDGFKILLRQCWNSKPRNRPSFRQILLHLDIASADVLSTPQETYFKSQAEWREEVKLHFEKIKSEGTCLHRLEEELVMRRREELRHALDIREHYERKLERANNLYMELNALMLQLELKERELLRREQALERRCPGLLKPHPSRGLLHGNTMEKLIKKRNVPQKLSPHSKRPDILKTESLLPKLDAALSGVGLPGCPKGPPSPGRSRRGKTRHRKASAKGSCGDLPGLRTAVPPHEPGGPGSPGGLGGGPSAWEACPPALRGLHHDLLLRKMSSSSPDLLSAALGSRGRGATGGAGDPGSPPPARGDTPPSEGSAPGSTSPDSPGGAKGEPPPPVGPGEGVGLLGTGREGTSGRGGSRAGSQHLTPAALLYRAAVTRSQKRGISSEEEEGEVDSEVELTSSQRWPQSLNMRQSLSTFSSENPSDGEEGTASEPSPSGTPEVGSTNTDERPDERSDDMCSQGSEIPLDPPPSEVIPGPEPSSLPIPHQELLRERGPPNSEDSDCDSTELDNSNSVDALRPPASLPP

[20] = Volume of distribution at steady state in C57BL/6 mouse at 0.3 mg/kg, iv administered via tail vein and measured for 24 hrs by LC-MS/MS analysis; format: ADME, organism-based; conditions: in vivo, read-out: Vdss
[21] = Half life in C57BL/6 mouse at 0.3 mg/kg, iv administered via tail vein and measured for 24 hrs by LC-MS/MS analysis; format: ADME, organism-based; conditions: in vivo
[22] = Cmax in C57BL/6 mouse at 10 mg/kg administered via oral gavage and measured for 24 hrs by LC-MS/MS analysis; format: ADME, organism-based; parameters: dose 10 mg/kg, time 24 hrs, route po; conditions: in vivo
[23] = AUClast in C57BL/6 mouse at 10 mg/kg administered via oral gavage and measured for 24 hrs by LC-MS/MS analysis; format: ADME, organism-based; parameters: time 24 hrs, dose 10 mg/kg, route po; conditions: in vivo

Row | Compound | CLint scaled at 1 µM [2] [mL/min/kg] | CLint scaled at 1 µM [3] [mL/min/kg] | CLint scaled at 1 µM [4] [mL/min/kg] | Kp uu at 24 h [6] | pKd [1] | further results
1 | CC(C)c1nc(-c2cnc(N)c(C(F)(F)F)c2)cn1C1CC1 | – | – | – | – | 6.89 | –
2 | CC(C)c1nc(-c2cnc(N)c(C(F)(F)F)c2)cn1C1CCCC1 | 2670 | 238 | 362 | – | 6.65 | –
3 | Nc1ncc(-c2cc([C@H]3[C@@H]4CN(C5COC5)C[C@@H]43)n(CC3CC3)n2)cc1C(F)(F)F | – | – | – | – | 7.89 | –
4 | CC(C)c1nc(-c2cnc(N)c(C(F)(F)F)c2)cn1C12CC(C1)C2 | 199 | 69 | 168 | – | 7.31 | –
5 | CC(C)n1nc(-c2cnc(N)c(C(F)(F)F)c2)cc1C1CC1 | – | – | – | – | 6.96 | –
6 | Nc1ncc(-c2cn([C@H]3[C@@H]4CN(C5COC5)C[C@@H]43)c(CC3CC3)n2)cc1C(F)(F)F | – | – | – | – | 7.20 | –
7 | CC(C)c1nc(-c2cnc(N)c(C(F)(F)F)c2)cn1C1CCC1 | 789 | 133 | 233 | – | 7.18 | –
8 | CC(C)C(O)c1nc(-c2cnc(N)c(OC(F)(F)F)c2)cn1C12CC(C1)C2 (centres undefined) | – | 91 | 35 | – | 9.22 | –
9 | Nc1ncc(-c2cn(C34CC(C3)C4)c([C@@H](O)C(F)(F)F)n2)cc1OC(F)(F)F | 26 | 32 | 14 | 1.1 | 8.92 | pIC50 [19]: 7.32; F ([7]; mouse, po, 10 mg/kg, 24 h): 51%; Vd [20]: 4.6 L/kg; half-life [21]: 3.5 h; Cmax [22]: 2000 nM; AUClast [23]: 14.4 µM·h

Now from value to compound, other results behind:

Row | CLint scaled at 1 µM [2] [mL/min/kg] | CLint scaled at 1 µM [3] [mL/min/kg] | CLint scaled at 1 µM [4] [mL/min/kg] | Kp uu at 24 h [6] | Compound | pKd [1] | further results
10 | 12 | 12 | 2 | 0.73 | Nc1ncc(-c2cn(C34CC(N5CCOCC5)(C3)C4)c(C3CC3)n2)cc1OC(F)(F)F | – | half-life [5]: 3.5 h; bioavailability [7]: > 100%; half-life [8]: 3.4 h; bioavailability [9]: > 100%; half-life [10]: 10.5 h; bioavailability [11]: 77%; half-life [12]: 4.6 h; bioavailability [13]: 66%
11 | 9 | 6 | 9 | 0.6 | CC(C)c1nc(-c2cnc(N)c(OC(F)(F)F)c2)cn1C12CC(N3CCOCC3)(C1)C2 | 7.85 | half-life [5]: 3.5 h; bioavailability [7]: > 100%; half-life [8]: 7 h; bioavailability [9]: > 100%; half-life [10]: 22.9 h; bioavailability [11]: 80%; half-life [12]: 6.3 h; bioavailability [13]: 64%; inhibition [14]: 16%; Activity (Mus musculus [15]): Active; Activity (Mus musculus [16]): Active; Activity [17]: Toxic; pIC50 [18]: < 4.52
12 | 3 | 1 | 22 | 0.2 | CC(C)[C@H](O)c1nc(-c2cnc(N)c(OC(F)(F)F)c2)cn1C12CC(N3CCOCC3)(C1)C2 | 9.40 | –
13 | – | 11 | 9 | – | CC(C)Cc1nc(-c2cnc(N)c(C(F)(F)F)c2)cn1C12CC(N3CCOCC3)(C1)C2 | 8.21 | –
14 | – | 43 | 14 | – | CC(C)(C)Cc1nc(-c2cnc(N)c(C(F)(F)F)c2)cn1C12CC(N3CCOCC3)(C1)C2 | 7.18 | –
15 | – | 5 | 6 | – | Nc1ncc(-c2cn(C34CC(N5CCOCC5)(C3)C4)c(CC3CC3)n2)cc1C(F)(F)F | – | –
16 | 6 | – | 7 | 0.14 | CC(C)c1nc(-c2cnc(N)c(C(F)(F)F)c2)cn1C12CC(N3CCOCC3)(C1)C2 | 7.92 | half-life [5]: 3.3 h
17 | 16 | 10 | 5 | 0.34 | Nc1ncc(-c2cn(C34CC(N5CCOCC5)(C3)C4)c(C3CC3)n2)cc1C(F)(F)F | 7.89 | half-life [5]: 3.8 h
